The target in data set [1] is Hepatocyte growth factor receptor (Homo sapiens, UniProt P08581). The data set can be described thus: Inhibition of MET.
Data set [2] can be described thus: Antiproliferative activity against Met-dependent human GTL16 cells after 72 hrs by MTS assay. It is filed as functional, cell-based. As to conditions: GTL 16, 72 h. In general terms: Tetrazolium dyes change colour on reduction, which living cells bring about.
The next data set addresses Cytochrome P450 3A4 (Homo sapiens, UniProt P08684). Nature of the data set: Inhibition of CYP3A4. It is filed as ADME.
Another data set addresses Cytochrome P450 2C19 (Homo sapiens, UniProt P33261). Nature of the data set: Inhibition of CYP2C19. In kind it is ADME.
Data set [3] is described as follows: Metabolic stability in mouse liver microsomes assessed per mg of protein. In kind it is ADME, Microsome. For orientation: Liver microsomes are a subcellular fraction often used to study metabolism.
A further data set has as its target Cytochrome P450 1A2 (Homo sapiens, UniProt P05177). Nature of the data set: Inhibition of CYP1A2. It is filed as ADME.
Another data set concerns the target Cytochrome P450 2D6 (Homo sapiens, UniProt P10635). The data set can be described thus: Inhibition of CYP2D6. It is filed as ADME.
The target of another data set is Cytochrome P450 2C9 (Homo sapiens, UniProt P11712). The data set can be described thus: Inhibition of CYP2C9. It is filed as ADME.
Cytochrome P450 2C9, sequence (P11712 whole entry): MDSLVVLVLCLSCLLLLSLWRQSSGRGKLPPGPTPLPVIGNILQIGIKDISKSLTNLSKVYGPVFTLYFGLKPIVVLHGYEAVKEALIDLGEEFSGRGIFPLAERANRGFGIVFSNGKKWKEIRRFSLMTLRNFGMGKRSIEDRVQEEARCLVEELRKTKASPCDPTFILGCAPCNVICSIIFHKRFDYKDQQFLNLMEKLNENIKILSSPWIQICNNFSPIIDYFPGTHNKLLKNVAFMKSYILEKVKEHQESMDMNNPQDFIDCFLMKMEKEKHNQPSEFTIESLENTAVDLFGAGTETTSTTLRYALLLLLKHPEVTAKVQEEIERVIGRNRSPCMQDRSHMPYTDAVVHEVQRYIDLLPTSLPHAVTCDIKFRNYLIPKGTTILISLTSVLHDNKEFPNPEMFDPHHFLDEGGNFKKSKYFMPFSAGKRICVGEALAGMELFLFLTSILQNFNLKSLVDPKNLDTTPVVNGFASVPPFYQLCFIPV

Hepatocyte growth factor receptor, sequence (P08581 whole entry): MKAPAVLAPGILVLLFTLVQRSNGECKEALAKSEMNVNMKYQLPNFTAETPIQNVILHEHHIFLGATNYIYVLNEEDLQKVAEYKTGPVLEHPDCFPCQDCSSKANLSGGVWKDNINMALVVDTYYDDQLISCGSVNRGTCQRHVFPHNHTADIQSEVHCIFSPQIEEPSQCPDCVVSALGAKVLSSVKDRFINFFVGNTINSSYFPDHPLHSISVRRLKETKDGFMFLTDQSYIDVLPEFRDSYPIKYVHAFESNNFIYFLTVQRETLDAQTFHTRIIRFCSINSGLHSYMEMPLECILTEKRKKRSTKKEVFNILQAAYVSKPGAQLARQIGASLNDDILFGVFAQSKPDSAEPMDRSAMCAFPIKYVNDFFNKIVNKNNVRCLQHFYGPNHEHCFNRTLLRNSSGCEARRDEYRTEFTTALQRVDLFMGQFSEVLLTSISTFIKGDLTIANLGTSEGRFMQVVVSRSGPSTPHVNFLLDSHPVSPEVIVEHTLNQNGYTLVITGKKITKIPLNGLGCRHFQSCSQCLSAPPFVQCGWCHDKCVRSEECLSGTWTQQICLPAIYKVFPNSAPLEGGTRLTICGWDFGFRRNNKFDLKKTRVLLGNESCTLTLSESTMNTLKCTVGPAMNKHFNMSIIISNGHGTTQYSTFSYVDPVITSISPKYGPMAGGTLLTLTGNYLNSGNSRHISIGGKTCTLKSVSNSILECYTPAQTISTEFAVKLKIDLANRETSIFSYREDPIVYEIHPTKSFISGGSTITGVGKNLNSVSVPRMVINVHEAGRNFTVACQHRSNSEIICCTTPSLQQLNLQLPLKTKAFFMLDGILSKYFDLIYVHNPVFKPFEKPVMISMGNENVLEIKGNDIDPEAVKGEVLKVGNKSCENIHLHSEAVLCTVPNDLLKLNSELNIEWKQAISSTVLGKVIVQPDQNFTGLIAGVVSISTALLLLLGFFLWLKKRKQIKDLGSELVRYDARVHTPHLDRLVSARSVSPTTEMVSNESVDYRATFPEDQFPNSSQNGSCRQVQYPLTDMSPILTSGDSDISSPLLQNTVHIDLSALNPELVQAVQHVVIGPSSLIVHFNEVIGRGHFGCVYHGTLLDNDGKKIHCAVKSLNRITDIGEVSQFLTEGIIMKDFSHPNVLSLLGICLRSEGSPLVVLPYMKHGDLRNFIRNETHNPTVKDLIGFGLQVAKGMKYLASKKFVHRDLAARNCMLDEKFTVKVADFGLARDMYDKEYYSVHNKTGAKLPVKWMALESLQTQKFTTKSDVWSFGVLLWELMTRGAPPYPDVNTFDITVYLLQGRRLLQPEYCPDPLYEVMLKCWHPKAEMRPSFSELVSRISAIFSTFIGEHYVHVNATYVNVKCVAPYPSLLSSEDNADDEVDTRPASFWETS
Cytochrome P450 3A4, sequence (P08684 whole entry): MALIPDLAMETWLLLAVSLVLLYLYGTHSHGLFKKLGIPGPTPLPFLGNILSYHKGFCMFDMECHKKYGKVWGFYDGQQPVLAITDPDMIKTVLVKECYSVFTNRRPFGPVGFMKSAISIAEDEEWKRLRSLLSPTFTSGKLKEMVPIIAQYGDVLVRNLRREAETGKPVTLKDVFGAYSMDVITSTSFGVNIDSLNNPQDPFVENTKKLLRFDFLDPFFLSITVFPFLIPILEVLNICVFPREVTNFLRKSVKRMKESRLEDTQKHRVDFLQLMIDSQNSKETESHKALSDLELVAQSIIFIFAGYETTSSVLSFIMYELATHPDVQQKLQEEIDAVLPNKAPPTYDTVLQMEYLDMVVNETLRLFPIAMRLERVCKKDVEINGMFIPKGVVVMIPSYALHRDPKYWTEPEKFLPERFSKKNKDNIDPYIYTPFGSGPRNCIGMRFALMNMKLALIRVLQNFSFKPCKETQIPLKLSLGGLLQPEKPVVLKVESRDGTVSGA
Cytochrome P450 1A2, sequence (P05177 whole entry): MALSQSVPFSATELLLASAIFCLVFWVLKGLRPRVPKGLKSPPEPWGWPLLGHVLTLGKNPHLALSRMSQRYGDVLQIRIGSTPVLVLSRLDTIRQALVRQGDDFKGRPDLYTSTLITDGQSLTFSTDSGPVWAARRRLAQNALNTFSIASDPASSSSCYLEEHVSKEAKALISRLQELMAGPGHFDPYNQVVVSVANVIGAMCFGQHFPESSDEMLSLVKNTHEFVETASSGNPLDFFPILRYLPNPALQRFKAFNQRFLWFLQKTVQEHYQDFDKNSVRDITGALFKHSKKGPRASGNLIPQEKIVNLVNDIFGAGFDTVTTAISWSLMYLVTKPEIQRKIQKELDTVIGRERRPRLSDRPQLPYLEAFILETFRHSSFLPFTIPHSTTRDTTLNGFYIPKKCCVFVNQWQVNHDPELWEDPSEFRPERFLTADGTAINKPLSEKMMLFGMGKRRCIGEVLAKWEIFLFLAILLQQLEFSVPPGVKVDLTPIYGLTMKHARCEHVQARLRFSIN
Cytochrome P450 2D6, sequence (P10635 whole entry): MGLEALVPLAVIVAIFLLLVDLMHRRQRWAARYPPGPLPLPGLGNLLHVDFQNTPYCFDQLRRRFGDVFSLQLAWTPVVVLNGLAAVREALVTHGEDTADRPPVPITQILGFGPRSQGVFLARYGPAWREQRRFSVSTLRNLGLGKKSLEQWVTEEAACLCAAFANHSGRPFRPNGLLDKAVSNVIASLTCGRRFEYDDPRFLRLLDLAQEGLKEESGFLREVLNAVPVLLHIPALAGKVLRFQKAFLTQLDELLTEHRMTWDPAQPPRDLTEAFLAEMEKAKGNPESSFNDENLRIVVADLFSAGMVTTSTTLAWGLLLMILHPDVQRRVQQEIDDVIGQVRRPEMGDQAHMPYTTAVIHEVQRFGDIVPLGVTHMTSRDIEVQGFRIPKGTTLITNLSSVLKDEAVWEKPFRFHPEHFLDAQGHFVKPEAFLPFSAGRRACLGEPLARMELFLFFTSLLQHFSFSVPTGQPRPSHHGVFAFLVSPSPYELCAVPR
Cytochrome P450 2C19, sequence (P33261 whole entry): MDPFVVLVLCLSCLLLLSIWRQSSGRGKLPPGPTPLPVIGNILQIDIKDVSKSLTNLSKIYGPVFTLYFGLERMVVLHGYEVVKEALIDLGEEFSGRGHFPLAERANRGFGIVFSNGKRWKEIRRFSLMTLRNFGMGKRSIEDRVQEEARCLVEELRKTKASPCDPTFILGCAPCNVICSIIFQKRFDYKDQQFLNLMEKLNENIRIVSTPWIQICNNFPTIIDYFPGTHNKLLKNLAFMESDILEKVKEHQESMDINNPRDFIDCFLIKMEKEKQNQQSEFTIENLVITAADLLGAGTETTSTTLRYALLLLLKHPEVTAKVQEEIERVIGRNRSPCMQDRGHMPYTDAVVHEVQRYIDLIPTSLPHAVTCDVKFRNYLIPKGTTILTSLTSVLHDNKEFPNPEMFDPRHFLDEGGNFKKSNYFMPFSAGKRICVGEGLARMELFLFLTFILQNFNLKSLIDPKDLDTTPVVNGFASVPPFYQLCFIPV

Usually IC50 stands for the concentration that inhibits the measured activity by half. Read a low IC50 as greater potency. As to `NCC#Cc1c(Oc2ccc(NC(=O)c3cccn(-c4ccc(F)cc4)c3=O)cc2F)ccnc1N`, the IC50 in data set [1] is 0.0038 µM; in data set [2], 0.21 µM.

Take `CC(C)Oc1ccn(-c2ccc(F)cc2)c(=O)c1C(=O)Nc1ccc(Oc2ccnc(N)c2Cl)c(F)c1`: the values for the IC50 in data set [1] and in data set [2] were 0.0032 µM and 0.14 µM, respectively.

Regarding `Nc1nccc(Oc2ccc(NC(=O)c3c(OCCO)ccn(-c4ccc(F)cc4)c3=O)cc2F)c1Cl`, the IC50 in data set [1] is 0.0026 µM; in data set [2] it was 0.25 µM.

As to `C#Cc1c(Oc2ccc(NC(=O)c3cccn(-c4ccc(F)cc4)c3=O)cc2F)ccnc1N`, the IC50 in data set [1] is 0.001 µM; in data set [2] it was 0.031 µM; at Cytochrome P450 3A4 it was less than 1 µM.

On to `CC(C)c1c(Oc2ccc(NC(=O)c3cccn(-c4ccc(F)cc4)c3=O)cc2F)ccnc1N`, for which the IC50 in data set [1] worked out at 0.0034 µM; in data set [2], 0.12 µM.

Consider `Nc1nccc(Oc2ccc(NC(=O)c3cccn(-c4ccc(F)cc4)c3=O)cc2F)c1Cl`, for which the IC50 in data set [1] is 0.001 µM; in data set [2], 0.057 µM; at Cytochrome P450 2C19, greater than 20 µM; at Cytochrome P450 1A2, greater than 20 µM; at Cytochrome P450 3A4 it was 4 µM; on Cytochrome P450 2D6 it was greater than 20 µM. The IC50 on Cytochrome P450 2C9 amounted to 7 µM. Besides, the Activity in data set [3] came out at 0.012 nmol/min/mg.

Values taken from ChEMBL document CHEMBL1140952 (J Med Chem, 2009).
